Laboratory results from US5925369A, “Bis alkanoyl esters of carnitine having bactericidal, fungicidal and antiprotozoal activity” (priority 1996, dated 1999).

Assays:
bacteria and fungi = conditions: bactericidal (EP-A-0 552 137) and fungicidal (EP-A-0 552 138); cited from earlier work
mouse scarified skin = assay: Dermal tolerability after repeated treatments (10 days) on mouse scarified skin; type: in vivo, CD1 mice; conditions: 1% gel; for Cracking (C), mean score / Desquamation (D), mean score / Erythema (E), mean score: scale 0-3, 50 mg/day
Method: Male CD1 mice (C. RIVER), aged 6 weeks, were used (5 animals per group).
Substance formulations (1% of test article) were prepared in gel (Hydroxyethyl-cellulose, 2.5 gr.; Glycerin, 7.0 gr.; Propylene Glycol, 7.0 gr.; water up to 100 ml).
The central dorsal zone of the animals was first shaved, and then gently abraded with a scalpel blade. Treatment was performed 1 day following the dermal abrasion by administering 50 mg of each substance formulation once a day, for 10 consecutive days. The treated skin areas were examined at 5, 7, 9, and 11 days following scarification. The evaluation was based upon grading of the lesions as […] (E), DESQUAMATION (D), and CRACKING (C), according to the following scale:
The mean of the values of each parameter in the same animal group allowed us to evaluate the tissue damage provoked by the substance under examination.

Gram positive bacteria = assay: MIC on Gram positive bacteria (all strains); type: cell-based
Method: Bacterial suspensions are prepared from an overnight culture in Mueller-Hinton broth and are adjusted, in the same medium, to a final concentration of 5.0×10^4 cells/ml in each well of a 96-well microtiter plate. Substance dilutions (0.3 log) in Mueller-Hinton broth are added to the suspensions in order to have a range of final concentrations from 0.19 to 100 mcg/ml.
Microtiters are then incubated at 37° C. for 18 hours. (See L. D. THRUPP, Susceptibility testing of antibiotics in liquid media, in: Antibiotics in laboratory medicine. V. LORIAN Ed., II edition, 4, 93-150, Williams & Wilkins, Baltimora, Md. 21202 U.S.A.).

[1] = system: T. mentagrophytes IDI D1049; assay: Antifungal activity in experimental Tinea pedis in the guinea-pig paw; type: in vivo, Hartley guinea-pig; conditions: for A (clinical sign score) / D (clinical sign score) / E (clinical sign score): scale 0-3; for sterile samples (%) / sterile samples (n = 30), number over total: 20 days once a day, day +31
Source text: Twelve male Hartley guinea-pig (C. RIVER), weighing 350-400 gr, have been utilized (3 animals per experimental group).
One clinical isolate (Tricophyton mentagrophytes IDI D 1049, from Immacolata Dermatological Institute of Rome) was utilized.
Microaleuriospores were first harvested by scraping from a 7-day fungal culture grown in Potato dextrose agar, and then resuspended in Sabouraud broth with 0.5% Tween 80.
After washing, the spores were standardized in sterile saline to yield a final concentration of 1.0×10^8 spores/ml.
Each group included 3 animals, and only the left hind paw was inoculated. For the 2 control groups, 3 animals in total were used, as both hind paws of each animal were inoculated.
Filter paper discs (12-mm diameter and 0.3-mm thickness) were covered with aluminum foil in the lower part to prevent the inoculum spreading. This filter was then sticked to a 1×3-cm piece of biadesive plaster, which adhered to a gauze wrapped around the paw.
The filter paper disc was then wetted with 100 μl of the infective suspension, and subsequently fixed to the guinea-pig paw.
The animal paw was tied up with bandage and plaster, and then left in these conditions for 7 days.
Seven days after infection, the infected areas were uncovered and the type of lesion was graded according to an arbitrary scale, as follows:
These "clinical" signs were examined again on days +14, +21, and +31 (day of sacrifice of animals). Three days following the first observation of the type of lesion (day +10), treatments with the differrent formulations were started, and they went on for 20 days (once a day). Two days following the last treatment (day +31), animals were sacrificed and plantar areas of the paws were dissected into 10 parts for each paw.
These sections were plated onto Mycobiotic agar supplemented with Penicillin G and Streptomicin (100 mcg/ml). Volumes of 50 μl of both antibiotics were then added to the plantar sections to prevent any bacterial growth that might interfere with the growth of T. mentagrophytes in the samples under examination.
The data obtained were expressed as the number of microbiologically sterile cutaneous sections over the total examined sections.

In the case of CCCCCCCCCCCOC(=O)C[C@H](C[N+](C)(C)C)OC(=O)CC(C)C [ST 1103, isovaleryl L-carnitine undecyl ester methanesulfonate, reference compound], the “activity among the known compounds” value (bacteria and fungi) is listed as “most active both as bactericidal and fungicidal agent”, the “Cracking (C), mean score” value (mouse scarified skin; day +5) is listed as 0 and the “Desquamation (D), mean score” value (mouse scarified skin; day +5) is listed as 0.4. The “Erythema (E), mean score” value (mouse scarified skin; day +5) was 1.2, the “Cracking (C), mean score” value (mouse scarified skin; day +7) was 0 and the “Desquamation (D), mean score” value (mouse scarified skin; day +7) was 0.4. For the same compound, the “Erythema (E), mean score” value (mouse scarified skin; day +7) was 0.4, the “Cracking (C), mean score” value (mouse scarified skin; day +9) was 0 and the “Desquamation (D), mean score” value (mouse scarified skin; day +9) was 0. The “Erythema (E), mean score” value (mouse scarified skin; day +9) was 0, the “Cracking (C), mean score” value (mouse scarified skin; day +11) was 0 and the “Desquamation (D), mean score” value (mouse scarified skin; day +11) was 0. For the same compound, the “Erythema (E), mean score” value (mouse scarified skin; day +11) was 0, the MIC (Gram positive bacteria; clinical isolates, 10 strains) was 3.9 µg/mL and the MIC (Gram positive bacteria; lab collection, 5 strains) was 4.06 µg/mL.
With CCCCCCCCCCC(=O)O[C@H](CC(=O)OCc1ccc(COC(=O)C[C@H](C[N+](C)(C)C)OC(=O)CCCCCCCCCC)cc1)C[N+](C)(C)C [ST 1226, bis(undecanoyl L-carnitine chloride)p-xylilene diester] the microbiological recovery ([1]; 1% ST 1226) was 80%, the “A (clinical sign score)” value ([1]; 1%, 7th day) was 0 and the “D (clinical sign score)” value ([1]; 1%, 7th day) was 0. For the same compound, the “E (clinical sign score)” value ([1]; 1%, 7th day) was 0, the “A (clinical sign score)” value ([1]; 1%, 14th day) was 0 and the “D (clinical sign score)” value ([1]; 1%, 14th day) was 0. The “E (clinical sign score)” value ([1]; 1%, 14th day) was 0, the “A (clinical sign score)” value ([1]; 1%, 21st day) was 0 and the “D (clinical sign score)” value ([1]; 1%, 21st day) was 0. The “E (clinical sign score)” value ([1]; 1%, 21st day) was 0, the “A (clinical sign score)” value ([1]; 1%, 31st day) was 0 and the “D (clinical sign score)” value ([1]; 1%, 31st day) was 0. For the same compound, the “E (clinical sign score)” value ([1]; 1%, 31st day) was 0, the “sterile samples (%)” value ([1]; 1%) was 80% and the “sterile samples (n = 30), number over total” value ([1]; 1%) was 24/30. For the same compound, the microbiological recovery ([1]; 1.5% ST 1226) was 100%, the “A (clinical sign score)” value ([1]; 1.5%, 7th day) was 0 and the “D (clinical sign score)” value ([1]; 1.5%, 7th day) was 0. For the same compound, the “E (clinical sign score)” value ([1]; 1.5%, 7th day) was 0, the “A (clinical sign score)” value ([1]; 1.5%, 14th day) was 0 and the “D (clinical sign score)” value ([1]; 1.5%, 14th day) was 0. For the same compound, the “E (clinical sign score)” value ([1]; 1.5%, 14th day) was 0, the “A (clinical sign score)” value ([1]; 1.5%, 21st day) was 0 and the “D (clinical sign score)” value ([1]; 1.5%, 21st day) was 0. For the same compound, the “E (clinical sign score)” value ([1]; 1.5%, 21st day) was 0, the “A (clinical sign score)” value ([1]; 1.5%, 31st day) was 0 and the “D (clinical sign score)” value ([1]; 1.5%, 31st day) was 0. The “E (clinical sign score)” value ([1]; 1.5%, 31st day) was 0, the “sterile samples (%)” value ([1]; 1.5%) was 100% and the “sterile samples (n = 30), number over total” value ([1]; 1.5%) was 20/20. For the same compound, the “dermal tolerability compared with ST 1103” value (mouse scarified skin; 10 days) was “better tolerated than ST1103”, the “Cracking (C), mean score” value (mouse scarified skin; day +5) was 0 and the “Desquamation (D), mean score” value (mouse scarified skin; day +5) was 0. The “Erythema (E), mean score” value (mouse scarified skin; day +5) was 0.2, the “Cracking (C), mean score” value (mouse scarified skin; day +7) was 0 and the “Desquamation (D), mean score” value (mouse scarified skin; day +7) was 0. For the same compound, the “Erythema (E), mean score” value (mouse scarified skin; day +7) was 0, the “Cracking (C), mean score” value (mouse scarified skin; day +9) was 0 and the “Desquamation (D), mean score” value (mouse scarified skin; day +9) was 0. The “Erythema (E), mean score” value (mouse scarified skin; day +9) was 0, the “Cracking (C), mean score” value (mouse scarified skin; day +11) was 0 and the “Desquamation (D), mean score” value (mouse scarified skin; day +11) was 0. For the same compound, the “Erythema (E), mean score” value (mouse scarified skin; day +11) was 0.
